Source: patent publication US20250188092A1, “RIFAMYCIN ANALOGS” (THE REGENTS OF THE UNIVERSITY OF MICHIGAN, priority 2021, published 2025)

Columns and labels:
VERO cells (ATCC CRL-81) = experiment: Vero cell toxicity; assay type: cell-based; conditions: Chlorocebus sabaeus, Vero; 72 hours exposure
Procedure: Cytotoxicity for a mammalian cell line was determined by exposing VERO cells (ATCC CRL-81) to serial dilutions of test compounds for 72 hours, followed by addition of resazurin and measurement of fluorescence after 4 hours incubation (Choules, et al., Antimnicrob. Agents Chemother. 2019, 63, e02204-02218).

[1] = molecular target: T1, E. coli D516V (RIF^R) RNAP (Escherichia coli, UniProt P0A8V2, D516V); experiment: biochemical
T1 construct: made in house

[2] = molecular target: T2, E. coli S531L (RIF^R) RNAP (Escherichia coli, UniProt P0A8V2, S531L); experiment: biochemical
T2 construct: made in house

DPX2 cells = conditions: for DPX2 Viability @ 6.25 μM: 24 h; for DPX2 Viability @ 25 μM: human
E. coli WT RNAP = molecular target: T3, E. coli WT RNAP (Escherichia coli, UniProt P0A8V2); experiment: biochemical
T3 construct: made in house

MTB H37Rv ATCC 27294 = experiment: MIC, microplate Alamar Blue assay (MABA); assay type: cell-based, Mycobacterium tuberculosis; conditions: for MIC / MIC90: Mycobacterium tuberculosis, MTB H37Rv ATCC 27294, microplate Alamar Blue assay, lowest concentration giving ≥90% reduction in fluorescence; for MIC: read-out: MIC90 MABA
M. tuberculosis H37Rv = experiment: Minimum bactericidal concentration (MBC, CFU Assay); assay type: cell-based, Mycobacterium tuberculosis; conditions: for MBC99 Day 7 (CFU Assay) MBC99 Rel to RMP: CFU Assay MBC99 relative to rifampin (RMP = 1); for MBC: Mycobacterium tuberculosis, 168 h, Day 7, M. tuberculosis H37Rv, ≥99% reduction in colony forming units, read-out: MBC99 Day 7 (CFU Assay) MBC99

SMILES: CO[C@H]1/C=C/O[C@@]2(C)Oc3c(C)c(O)c4c(=O)c(c5oc6cccc(OCCCCN7CCNCC7)c6nc-5c4c3C2=O)NC(=O)/C(C)=C\C=C\[C@H](C)[C@H](O)[C@@H](C)[C@@H](O)[C@@H](C)[C@H](OC(C)=O)[C@@H]1C [Compound 5d, (7S,9E,11S,12R,13S,14R,15R,16R,17S,18S,19E,21Z)-2,15,17-Trihydroxy-11-methoxy-3,7,12,14,16,18,22-heptamethyl-6,23,37-trioxo-32-[4-(piperazin-1-yl)butoxy]-8,27,38-trioxa-24,34-diazahexacyclo[23.11.1.1^4,7.0^5,36.0^26,35.0^28,33]octatriaconta-1(36)2,4,9,19,21,25,28,30,32,34-undecaen-13-yl acetate]
- IC50 (VERO cells (ATCC CRL-81)): > 8 µM
- IC50 [1]: 29 µM
- IC50 [2]: 440 µM
- DPX2 Viability @ 6.25 μM (DPX2 cells): 102%
- DPX2 Viability @ 25 μM (DPX2 cells): 59%
- IC50 (E. coli WT RNAP): 0.006 µM

SMILES: CO[C@H]1/C=C/O[C@@]2(C)Oc3c(C)c(O)c4c(=O)c(c5oc6cccc(OCCCCN7CCN(C(=O)CN8CCOCC8)CC7)c6nc-5c4c3C2=O)NC(=O)/C(C)=C\C=C\[C@H](C)[C@H](O)[C@@H](C)[C@@H](O)[C@@H](C)[C@H](OC(C)=O)[C@@H]1C [Compound 5e, (7S,9E,11S,12R,13S,14R,15R,16R,17S,18S,19E,21Z)-2,15,17-Trihydroxy-11-methoxy-3,7,12,14,16,18,22-heptamethyl-32-(4-{4-[2-(morpholin-4-yl)acetyl]piperazin-1-yl}butoxy)-6,23,37-trioxo-8,27,38-trioxa-24,34-diazahexacyclo[23.11.1.1^4,7.0^5,36.0^26,35.0^28,33]octatriaconta-1(36)2,4,9,19,21,25,28(33)29,31,34-undecaen-13-yl acetate]
- MIC90 MABA Rel to RMP (MTB H37Rv ATCC 27294): 1.4
- MIC (MTB H37Rv ATCC 27294): 0.082 µM
- IC50 (VERO cells (ATCC CRL-81)): > 8 µM
- IC50 [1]: 23 µM
- IC50 [2]: > 1000 µM
- DPX2 Viability @ 6.25 μM (DPX2 cells): 106%
- DPX2 Viability @ 25 μM (DPX2 cells): 83%
- IC50 (E. coli WT RNAP): 0.007 µM

SMILES: CO[C@H]1/C=C/O[C@@]2(C)Oc3c(C)c(O)c4c(=O)c(c5oc6cccc(OCc7cccc(CN8CCN(C(=O)Cn9ccnc9)CC8)c7)c6nc-5c4c3C2=O)NC(=O)/C(C)=C\C=C\[C@H](C)[C@H](O)[C@@H](C)[C@@H](O)[C@@H](C)[C@H](OC(C)=O)[C@@H]1C [Compound 11e, (7S,9E,11S,12R,13S,14R,15R,16R,17S,18S,19E,21Z)-2,15,17-Trihydroxy-32-{[3-({4-[2-(1H-imidazol-1-yl)acetyl]piperazin-1-yl}methyl)phenyl]methoxy}-11-methoxy-3,7,12,14,16,18,22-heptamethyl-6,23,37-trioxo-8,27,38-trioxa-24,34-diazahexacyclo[23.11.1.1^4,7.0^5,36.0^26,35.0^28,33]octatriaconta-1(36)2,4,9,19,21,25,28,30,32,34-undecaen-13-yl acetate]
- MIC90 MABA Rel to RMP (MTB H37Rv ATCC 27294): 0.93
- MIC (MTB H37Rv ATCC 27294): 0.048 µM
- IC50 (VERO cells (ATCC CRL-81)): > 8 µM
- MBC99 Day 7 (CFU Assay) MBC99 Rel to RMP (M. tuberculosis H37Rv): 0.15
- MBC (M. tuberculosis H37Rv): 0.02 µM
- DPX2 Viability @ 6.25 μM (DPX2 cells): 105%
- DPX2 Viability @ 25 μM (DPX2 cells): 96%

SMILES: CO[C@H]1/C=C/O[C@@]2(C)Oc3c(C)c(O)c4c(=O)c(c5oc6cc(N7CCN(CC(C)C)CC7)cc(OCc7ccc(CN8CCNCC8)cc7)c6nc-5c4c3C2=O)NC(=O)/C(C)=C\C=C\[C@H](C)[C@H](O)[C@@H](C)[C@@H](O)[C@@H](C)[C@H](OC(C)=O)[C@@H]1C [Compound 17b, (7S,9E,11S,12R,13S,14R,15R,16R,17S,18S,19E,21Z)-2,15,17-Trihydroxy-11-methoxy-3,7,12,14,16,18,22-heptamethyl-30-[4-(2-methylpropyl)piperazin-1-yl]-6,23,37-trioxo-32-({4-[(piperazin-1-yl)methyl]phenyl}methoxy)-8,27,38-trioxa-24,34-diazahexacyclo[23.11.1.1^4,7.0^5,36.0^26,35.0^28,33]octatriaconta-1(36)2,4,9,19,21,25,28,30,32,34-undecaen-13-yl acetate]
- MIC90 MABA Rel to RMP (MTB H37Rv ATCC 27294): 0.24
- MIC (MTB H37Rv ATCC 27294): < 0.016 µM
- IC50 (VERO cells (ATCC CRL-81)): 7.9 µM
- MBC better than that of rifampin (M. tuberculosis H37Rv): ~5 fold
- MBC99 Day 7 (CFU Assay) MBC99 Rel to RMP (M. tuberculosis H37Rv): 0.15
- MBC (M. tuberculosis H37Rv): 0.02 µM
- DPX2 Viability @ 6.25 μM (DPX2 cells): 109%
- DPX2 Viability @ 25 μM (DPX2 cells): 45%

SMILES: CO[C@H]1/C=C/O[C@@]2(C)Oc3c(C)c(O)c4c(=O)c(c5oc6cc(N7CCN(C(=O)c8cccc(-n9ccnc9)c8)CC7)cc(C)c6nc-5c4c3C2=O)NC(=O)/C(C)=C\C=C\[C@H](C)[C@H](O)[C@@H](C)[C@@H](O)[C@@H](C)[C@H](OC(C)=O)[C@@H]1C [Compound 29a, (7S,9E,11S,12R,13S,14R,15R,16R,17S,18S,19E,21Z)-2,15,17-Trihydroxy-30-{4-[3-(1H-imidazol-1-yl)benzoyl]piperazin-1-yl}-11-methoxy-3,7,12,14,16,18,22,32-octamethyl-6,23,37-trioxo-8,27,38-trioxa-24,34-diazahexacyclo[23.11.1.1^4,7.0^5,36.0^26,35.0^28,33]octatriaconta-1(36)2,4,9,19,21,25,28,30,32,34-undecaen-13-yl acetate]
- MIC90 MABA Rel to RMP (MTB H37Rv ATCC 27294): 1.33
- MIC90 (MTB H37Rv ATCC 27294): 0.036 µM
- IC50 (VERO cells (ATCC CRL-81)): > 10 µM
- MBC99 Day 7 (CFU Assay) MBC99 Rel to RMP (M. tuberculosis H37Rv): 0.15
- MBC (M. tuberculosis H37Rv): 0.02 µM
- DPX2 Viability @ 25 μM (DPX2 cells): 149%

SMILES: CO[C@H]1/C=C/O[C@@]2(C)Oc3c(C)c(O)c4c(=O)c(c5oc6cc(N7CCN(CCCO[C@@H]8COc9nc([N+](=O)[O-])cn9C8)CC7)cc(C)c6nc-5c4c3C2=O)NC(=O)/C(C)=C\C=C\[C@H](C)[C@H](O)[C@@H](C)[C@@H](O)[C@@H](C)[C@H](OC(C)=O)[C@@H]1C [Compound 29d, (7S,9E,11S,12R,13S,14R,15R,16R,17S,18S,19E,21Z)-2,15,17-Trihydroxy-11-methoxy-3,7,12,14,16,18,22,32-octamethyl-30-[4-(3-{[(6S)-2-nitro-5H,6H,7H-imidazo[2,1-b][1,3]oxazin-6-yl]oxy}propyl)piperazin-1-yl]-6,23,37-trioxo-8,27,38-trioxa-24,34-diazahexacyclo[23.11.1.1^4,7.0^5,36.0^26,35.0^28,33]octatriaconta-1(36)2,4,9,19,21,25,28,30,32,34-undecaen-13-yl acetate]
- MIC90 MABA Rel to RMP (MTB H37Rv ATCC 27294): 1.37
- MIC90 (MTB H37Rv ATCC 27294): 0.037 µM
- IC50 (VERO cells (ATCC CRL-81)): > 10 µM
- MBC99 Day 7 (CFU Assay) MBC99 Rel to RMP (M. tuberculosis H37Rv): 0.62
- MBC (M. tuberculosis H37Rv): 0.08 µM
- DPX2 Viability @ 6.25 μM (DPX2 cells): 114%
- DPX2 Viability @ 25 μM (DPX2 cells): 101%

SMILES: CO[C@H]1/C=C/O[C@@]2(C)Oc3c(C)c(O)c4c(=O)c(c5oc6cc(C)cc(N7CCN(C(=O)c8cccc(-c9ccccn9)c8)CC7)c6nc-5c4c3C2=O)NC(=O)/C(C)=C\C=C\[C@H](C)[C@H](O)[C@@H](C)[C@@H](O)[C@@H](C)[C@H](OC(C)=O)[C@@H]1C [Compound 30g, (7S,9E,11S,12R,13S,14R,15R,16R,17S,18S,19E,21Z)-2,15,17-Trihydroxy-11-methoxy-3,7,12,14,16,18,22,30-octamethyl-6,23,37-trioxo-32-{4-[3-(pyridin-2-yl)benzoyl]piperazin-1-yl}-8,27,38-trioxa-24,34-diazahexacyclo[23.11.1.1^4,7.0^5,36.0^26,35.0^28,33]octatriaconta-1(36)2,4,9,19,21,25,28,30,32,34-undecaen-13-yl acetate]
- MIC90 MABA Rel to RMP (MTB H37Rv ATCC 27294): 0.96
- MIC90 (MTB H37Rv ATCC 27294): 0.026 µM
- IC50 (VERO cells (ATCC CRL-81)): > 10 µM
- MBC99 Day 7 (CFU Assay) MBC99 Rel to RMP (M. tuberculosis H37Rv): <0.08
- MBC (M. tuberculosis H37Rv): < 0.02 µM
- DPX2 Viability @ 6.25 μM (DPX2 cells): 99%
- DPX2 Viability @ 25 μM (DPX2 cells): 61%

SMILES: CO[C@H]1/C=C/O[C@@]2(C)Oc3c(C)c(O)c4c(=O)c(c5oc6cc(C)cc(N7CCN(C(=O)c8ccc9occc9c8)CC7)c6nc-5c4c3C2=O)NC(=O)/C(C)=C\C=C\[C@H](C)[C@H](O)[C@@H](C)[C@@H](O)[C@@H](C)[C@H](OC(C)=O)[C@@H]1C [Compound 30h, (7S,9E,11S,12R,13S,14R,15R,16R,17S,18S,19E,21Z)-32-[4-(1-Benzofuran-5-carbonyl)piperazin-1-yl]-2,15,17-trihydroxy-11-methoxy-3,7,12,14,16,18,22,30-octamethyl-6,23,37-trioxo-8,27,38-trioxa-24,34-diazahexacyclo[23.11.1.1^4,7.0^5,36.0^26,35.0^28,33]octatriaconta-1(36)2,4,9,19,21,25,28,30,32,34-undecaen-13-yl acetate]
- MIC90 MABA Rel to RMP (MTB H37Rv ATCC 27294): 0.70
- MIC90 (MTB H37Rv ATCC 27294): 0.019 µM
- IC50 (VERO cells (ATCC CRL-81)): > 10 µM
- MBC99 Day 7 (CFU Assay) MBC99 Rel to RMP (M. tuberculosis H37Rv): <0.08
- MBC (M. tuberculosis H37Rv): < 0.02 µM
- DPX2 Viability @ 6.25 μM (DPX2 cells): 100%
- DPX2 Viability @ 25 μM (DPX2 cells): 57%
